# According to ChEMBL document CHEMBL5528049, “Discovery of (4-Pyrazolyl)-2-aminopyrimidines as Potent and Selective Inhibitors of Cyclin-Dependent Kinase 2” (J Med Chem, 2024):
# How the values were obtained:
# [1] = Drug concentration in athymic nude mouse plasma at 30 mg/kg, po administered as […] for 5 days and measured after 24 hrs; assay type: ADME, organism-based; conditions: in vivo, 144 h, BLD = below limit of detection, time 6 day
# [2] = Toxicity in athymic nude mouse xenografted with human OVCAR-3 cells assessed as body weight loss at 30 mg/kg, po administered once daily for 28 days; assay type: organism-based; conditions: in vivo, 672 h, time 28 day
# Cytochrome P450 2C9 = Cytochrome P450 2C9 (Homo sapiens, UniProt P11712); assay: Inhibition of CYP2C9 in human liver microsomes using diclofenac as substrate in presence of NADPH by LC-MS/MS analysis; assay type: ADME, Microsome
# Chain of Cytochrome P450 2C9 (P11712 whole entry): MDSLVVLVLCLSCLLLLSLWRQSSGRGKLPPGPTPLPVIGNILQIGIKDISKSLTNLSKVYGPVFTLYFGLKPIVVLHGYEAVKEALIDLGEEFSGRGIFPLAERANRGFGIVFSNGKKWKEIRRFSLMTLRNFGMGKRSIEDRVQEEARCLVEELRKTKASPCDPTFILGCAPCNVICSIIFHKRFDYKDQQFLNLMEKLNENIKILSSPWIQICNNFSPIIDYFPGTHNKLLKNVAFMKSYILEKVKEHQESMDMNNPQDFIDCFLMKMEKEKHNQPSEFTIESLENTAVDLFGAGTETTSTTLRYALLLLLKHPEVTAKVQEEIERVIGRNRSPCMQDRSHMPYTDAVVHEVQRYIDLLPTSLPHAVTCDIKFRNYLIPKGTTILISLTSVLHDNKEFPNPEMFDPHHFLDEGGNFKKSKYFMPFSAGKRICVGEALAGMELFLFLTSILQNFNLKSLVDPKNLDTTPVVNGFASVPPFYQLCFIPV
# Cytochrome P450 3A4 = Cytochrome P450 3A4 (Homo sapiens, UniProt P08684); assay: Inhibition of CYP3A4 in human liver microsomes using midazolam/testosterone as substrate in presence of NADPH by LC-MS/MS analysis; assay type: ADME, Microsome
# Chain of Cytochrome P450 3A4 (P08684 whole entry): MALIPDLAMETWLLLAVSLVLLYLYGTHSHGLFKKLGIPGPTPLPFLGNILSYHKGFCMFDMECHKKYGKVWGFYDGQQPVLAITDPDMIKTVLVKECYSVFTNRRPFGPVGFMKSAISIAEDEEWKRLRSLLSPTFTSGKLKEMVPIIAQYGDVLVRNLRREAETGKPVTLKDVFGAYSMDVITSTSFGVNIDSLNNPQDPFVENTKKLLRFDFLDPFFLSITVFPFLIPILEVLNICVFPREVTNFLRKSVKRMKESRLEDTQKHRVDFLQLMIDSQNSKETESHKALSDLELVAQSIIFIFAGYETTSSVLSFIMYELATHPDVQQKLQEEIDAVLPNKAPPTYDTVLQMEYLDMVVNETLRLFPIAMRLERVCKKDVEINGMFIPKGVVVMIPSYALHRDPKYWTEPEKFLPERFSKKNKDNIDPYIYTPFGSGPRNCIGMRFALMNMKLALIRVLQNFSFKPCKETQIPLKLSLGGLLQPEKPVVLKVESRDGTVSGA
# [3] = Solubility of compound in SGF by HPLC analysis
# Cytochrome P450 2B6 = biological target: T1, Cytochrome P450 2B6 (Homo sapiens, UniProt P20813); assay: Inhibition of CYP2B6 in human liver microsomes using bupropion as substrate in presence of NADPH by LC-MS/MS analysis; assay type: ADME, Microsome
# T1 sequence (P20813 whole entry): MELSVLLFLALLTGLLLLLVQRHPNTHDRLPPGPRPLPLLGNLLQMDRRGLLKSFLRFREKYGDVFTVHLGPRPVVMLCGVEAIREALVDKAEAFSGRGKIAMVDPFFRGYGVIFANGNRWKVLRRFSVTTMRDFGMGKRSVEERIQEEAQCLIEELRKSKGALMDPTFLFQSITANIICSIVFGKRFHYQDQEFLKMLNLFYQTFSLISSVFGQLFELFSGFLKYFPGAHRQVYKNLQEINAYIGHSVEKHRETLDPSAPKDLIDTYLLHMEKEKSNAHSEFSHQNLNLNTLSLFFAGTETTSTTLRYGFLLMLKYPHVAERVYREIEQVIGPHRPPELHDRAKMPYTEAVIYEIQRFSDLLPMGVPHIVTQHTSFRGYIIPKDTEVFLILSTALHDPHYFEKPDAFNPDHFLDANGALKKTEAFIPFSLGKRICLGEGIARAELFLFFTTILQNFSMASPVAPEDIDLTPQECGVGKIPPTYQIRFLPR
# [4] = Half-life in Sprague-Dawley rat at 0.5 mg/kg, iv administered as cassette dose and measured upto 24 hrs by LC-MS/MS analysis; assay type: ADME, organism-based; conditions: in vivo
# Cytochrome P450 1A2 = biological target: T2, Cytochrome P450 1A2 (Homo sapiens, UniProt P05177); assay: Inhibition of CYP1A2 in human liver microsomes using 7-ethoxyresorufin as substrate in presence of NADPH by LC-MS/MS analysis; assay type: ADME, Microsome
# T2 sequence (P05177 whole entry): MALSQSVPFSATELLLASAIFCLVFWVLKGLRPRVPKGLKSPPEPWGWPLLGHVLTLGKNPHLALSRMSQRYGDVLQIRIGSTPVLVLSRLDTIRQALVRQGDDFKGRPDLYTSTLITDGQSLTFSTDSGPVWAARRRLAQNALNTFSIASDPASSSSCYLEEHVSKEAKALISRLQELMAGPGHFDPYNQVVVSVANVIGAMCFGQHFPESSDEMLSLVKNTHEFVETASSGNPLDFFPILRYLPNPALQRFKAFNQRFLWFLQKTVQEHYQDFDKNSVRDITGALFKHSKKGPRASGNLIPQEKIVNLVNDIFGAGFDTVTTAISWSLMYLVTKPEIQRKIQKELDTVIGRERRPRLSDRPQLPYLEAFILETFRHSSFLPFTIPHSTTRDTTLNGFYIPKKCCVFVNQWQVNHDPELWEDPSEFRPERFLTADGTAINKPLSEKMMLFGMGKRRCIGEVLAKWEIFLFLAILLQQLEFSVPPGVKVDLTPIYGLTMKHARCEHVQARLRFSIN
# Cytochrome P450 2D6 = Cytochrome P450 2D6 (Homo sapiens, UniProt P10635); assay: Inhibition of CYP2D6 in human liver microsomes using bufuralol as substrate in presence of NADPH by LC-MS/MS analysis; assay type: ADME, Microsome
# Chain of Cytochrome P450 2D6 (P10635 whole entry): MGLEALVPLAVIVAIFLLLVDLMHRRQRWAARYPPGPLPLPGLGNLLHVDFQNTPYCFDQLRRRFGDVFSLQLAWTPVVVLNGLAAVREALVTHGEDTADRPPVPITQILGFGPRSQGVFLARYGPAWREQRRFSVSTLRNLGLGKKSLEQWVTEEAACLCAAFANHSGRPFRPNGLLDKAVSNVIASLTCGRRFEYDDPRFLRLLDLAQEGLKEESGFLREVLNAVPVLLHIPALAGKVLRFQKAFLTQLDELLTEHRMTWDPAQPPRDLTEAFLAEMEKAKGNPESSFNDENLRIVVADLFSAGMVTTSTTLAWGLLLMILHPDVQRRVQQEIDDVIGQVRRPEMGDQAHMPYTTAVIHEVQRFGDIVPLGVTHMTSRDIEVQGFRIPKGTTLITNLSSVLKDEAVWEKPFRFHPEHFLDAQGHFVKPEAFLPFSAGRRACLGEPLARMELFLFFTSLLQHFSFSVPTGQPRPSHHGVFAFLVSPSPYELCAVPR
# [5] = Hepatic blood flow in Sprague-Dawley rat at 0.5 mg/kg, iv administered as cassette dose and measured upto 24 hrs by LC-MS/MS analysis; assay type: ADME, organism-based; conditions: in vivo
# [6] = Hepatic blood flow in cynomolgus monkey at 0.3 mg/kg, iv administered as cassette dose and measured upto 24 hrs by LC-MS/MS analysis; assay type: ADME, organism-based, Macaca fascicularis; conditions: in vivo
# hERG (KCNH2) = hERG (KCNH2) (Homo sapiens, UniProt Q12809); assay: Inhibition of human ERG at 10 uM by patch clamp method relative to control; assay type: toxicity
# Chain of hERG (KCNH2) (Q12809 whole entry): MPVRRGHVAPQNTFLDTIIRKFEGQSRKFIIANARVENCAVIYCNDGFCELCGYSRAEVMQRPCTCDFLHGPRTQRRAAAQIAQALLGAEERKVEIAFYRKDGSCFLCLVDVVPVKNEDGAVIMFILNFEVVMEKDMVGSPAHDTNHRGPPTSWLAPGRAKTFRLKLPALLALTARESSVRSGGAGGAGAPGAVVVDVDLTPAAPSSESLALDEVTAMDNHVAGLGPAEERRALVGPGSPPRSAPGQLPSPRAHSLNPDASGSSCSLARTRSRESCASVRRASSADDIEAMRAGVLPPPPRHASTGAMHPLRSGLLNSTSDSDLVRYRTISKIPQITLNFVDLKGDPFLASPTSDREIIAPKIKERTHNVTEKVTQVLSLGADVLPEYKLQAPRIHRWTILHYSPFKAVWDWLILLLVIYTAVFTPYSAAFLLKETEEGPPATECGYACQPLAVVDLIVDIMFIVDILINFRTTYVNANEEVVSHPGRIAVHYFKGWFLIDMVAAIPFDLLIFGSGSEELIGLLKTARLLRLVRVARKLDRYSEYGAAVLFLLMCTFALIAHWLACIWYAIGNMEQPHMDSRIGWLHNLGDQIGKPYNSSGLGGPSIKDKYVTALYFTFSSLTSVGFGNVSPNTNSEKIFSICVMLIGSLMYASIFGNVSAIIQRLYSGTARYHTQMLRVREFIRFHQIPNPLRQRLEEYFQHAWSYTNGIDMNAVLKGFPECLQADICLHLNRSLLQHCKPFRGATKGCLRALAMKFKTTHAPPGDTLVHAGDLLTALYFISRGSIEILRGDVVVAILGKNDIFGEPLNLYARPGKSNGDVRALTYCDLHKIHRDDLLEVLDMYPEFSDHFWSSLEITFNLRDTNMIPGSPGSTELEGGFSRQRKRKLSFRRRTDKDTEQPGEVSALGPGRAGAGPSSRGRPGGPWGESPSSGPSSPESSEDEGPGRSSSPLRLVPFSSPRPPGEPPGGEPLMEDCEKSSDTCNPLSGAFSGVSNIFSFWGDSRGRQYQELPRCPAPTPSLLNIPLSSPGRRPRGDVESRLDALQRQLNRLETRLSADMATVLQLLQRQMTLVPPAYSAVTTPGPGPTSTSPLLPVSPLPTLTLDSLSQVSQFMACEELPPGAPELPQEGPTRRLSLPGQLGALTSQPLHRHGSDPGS
# [7] = Volume of distribution at steady state in Sprague-Dawley rat at 0.5 mg/kg, iv administered as cassette dose and measured upto 24 hrs by LC-MS/MS analysis; assay type: ADME, organism-based; conditions: in vivo, read-out: Vdss
# OVCAR-3 = assay: Antitumor activity against human OVCAR-3 cells xenografted in athymic nude mouse assessed as tumor growth inhibition at 30 mg/kg, po administered once daily for 28 days relative to control; assay type: functional; conditions: OVCAR-3, 672 h, time 28 day, read-out: TGI
# [8] = Half-life in cynomolgus monkey at 0.3 mg/kg, iv administered as cassette dose and measured upto 24 hrs by LC-MS/MS analysis; assay type: ADME, organism-based, Macaca fascicularis; conditions: in vivo
# [9] = Oral bioavailability in cynomolgus monkey at 2 mg/kg administered as cassette dose and measured upto 24 hrs by LC-MS/MS analysis; assay type: ADME, organism-based, Macaca fascicularis; conditions: in vivo
# [10] = AUC in Sprague-Dawley rat at 3 mg/kg, po administered as cassette dose and measured upto 24 hrs by LC-MS/MS analysis; assay type: ADME, organism-based; conditions: in vivo
# [11] = Toxicity in athymic nude mouse xenografted with human OVCAR-3 cells assessed as adverse effect at 30 mg/kg, po administered once daily for 28 days; assay type: organism-based; conditions: in vivo, 672 h, time 28 day
# [12] = Toxicity in athymic nude mouse xenografted with human OVCAR-3 cells assessed as animal death at 30 mg/kg, po administered once daily for 28 days; assay type: organism-based; conditions: in vivo, 672 h, time 28 day
# Cytochrome P450 2C8 = biological target: T3, Cytochrome P450 2C8 (Homo sapiens, UniProt P10632); assay: Inhibition of CYP2C8 in human liver microsomes using amodiaquine as substrate in presence of NADPH by LC-MS/MS analysis; assay type: ADME, Microsome
# T3 sequence (P10632 whole entry): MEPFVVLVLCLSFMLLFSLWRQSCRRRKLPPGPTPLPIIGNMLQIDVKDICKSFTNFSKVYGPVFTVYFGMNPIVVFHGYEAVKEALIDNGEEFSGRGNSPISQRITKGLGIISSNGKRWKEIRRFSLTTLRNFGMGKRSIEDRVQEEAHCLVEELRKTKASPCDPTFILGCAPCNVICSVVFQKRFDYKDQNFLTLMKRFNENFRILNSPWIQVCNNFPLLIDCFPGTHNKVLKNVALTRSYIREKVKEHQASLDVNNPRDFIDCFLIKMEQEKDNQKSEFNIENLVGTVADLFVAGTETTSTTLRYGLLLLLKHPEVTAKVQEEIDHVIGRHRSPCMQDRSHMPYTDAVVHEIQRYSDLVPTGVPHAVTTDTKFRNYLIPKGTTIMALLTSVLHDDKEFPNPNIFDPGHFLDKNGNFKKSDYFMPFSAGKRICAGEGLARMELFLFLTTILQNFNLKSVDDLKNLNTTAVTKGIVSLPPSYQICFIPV
# [13] = Oral bioavailability in Sprague-Dawley rat at 3 mg/kg administered as cassette dose and measured upto 24 hrs by LC-MS/MS analysis; assay type: ADME, organism-based; conditions: in vivo
# [14] = Apparent permeability from apical to basolateral side in human Caco-2 cells at 50 uM incubated for 120 mins by LCMS analysis
# [15] = Volume of distribution at steady state in cynomolgus monkey at 0.3 mg/kg, iv administered as cassette dose and measured upto 24 hrs by LC-MS/MS analysis; assay type: ADME, organism-based, Macaca fascicularis; conditions: in vivo, read-out: Vdss
# [16] = AUC in cynomolgus monkey at 2 mg/kg, po administered as cassette dose and measured upto 24 hrs by LC-MS/MS analysis; assay type: ADME, organism-based, Macaca fascicularis; conditions: in vivo
# [17] = Cmax in cynomolgus monkey at 2 mg/kg, po administered as cassette dose and measured upto 24 hrs by LC-MS/MS analysis; assay type: ADME, organism-based, Macaca fascicularis; conditions: in vivo
# [18] = Cmax in Sprague-Dawley rat at 3 mg/kg, po administered as cassette dose and measured upto 24 hrs by LC-MS/MS analysis; assay type: ADME, organism-based; conditions: in vivo
# Cytochrome P450 2C19 = Cytochrome P450 2C19 (Homo sapiens, UniProt P33261); assay: Inhibition of CYP2C19 in human liver microsomes using S-mephenytoin as substrate in presence of NADPH by LC-MS/MS analysis; assay type: ADME, Microsome
# Chain of Cytochrome P450 2C19 (P33261 whole entry): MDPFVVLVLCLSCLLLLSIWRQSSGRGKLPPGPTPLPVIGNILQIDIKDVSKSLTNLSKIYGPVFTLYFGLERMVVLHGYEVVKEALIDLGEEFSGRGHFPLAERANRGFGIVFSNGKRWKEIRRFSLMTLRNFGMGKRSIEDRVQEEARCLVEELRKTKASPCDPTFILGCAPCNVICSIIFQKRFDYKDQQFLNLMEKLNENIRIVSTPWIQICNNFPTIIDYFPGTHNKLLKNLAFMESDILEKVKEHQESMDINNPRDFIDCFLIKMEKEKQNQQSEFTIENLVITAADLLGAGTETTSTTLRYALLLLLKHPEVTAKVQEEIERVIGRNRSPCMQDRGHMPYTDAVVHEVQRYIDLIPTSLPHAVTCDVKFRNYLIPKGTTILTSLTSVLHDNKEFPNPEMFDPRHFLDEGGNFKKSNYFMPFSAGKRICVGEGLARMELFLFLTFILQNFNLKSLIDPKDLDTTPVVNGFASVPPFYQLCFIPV
# [19] = Intrinsic clearance in human liver microsomes at 1 uM measured upto 30 mins by LC/MS analysis; assay type: ADME, Microsome; conditions: read-out: CLH (converted)
# [20] = In vivo inhibition of CDK2 in athymic nude mouse assessed as reduction in retinoblastoma protein phosphorylation at 30 mg/kg, po administered once daily for 5 days and measured after 24 hrs relative to control; assay type: functional; conditions: 144 h, time 6 day
# [21] = Protein binding in human plasma assessed as free fraction incubated for 2 hrs by LC-MS/MS analysis; assay type: ADME, cell-free
smiles,measurement,setting,value
CC(C)(O)Cn1cc(-c2nc(NC3CCN(S(=O)(=O)C4CC4)CC3)ncc2C(F)(F)F)cn1,Cp,[1],Bld
same,Activity,[2],Non-Toxic
same,IC50,Cytochrome P450 2C9,> 25 µM
same,IC50,Cytochrome P450 3A4,> 25 µM
same,solubility,[3],> 400 µg/mL
same,IC50,Cytochrome P450 2B6,> 25 µM
same,half-life,[4],2 h
same,IC50,Cytochrome P450 1A2,> 25 µM
same,IC50,Cytochrome P450 2D6,> 25 µM
same,QH,[5],130%
same,QH,[6],9%
same,inhibition at 10 µM,hERG (KCNH2),6.6%
same,Vd,[7],1.8 L/kg
same,inhibition in vivo at 30 mg/kg,OVCAR-3,38%
same,half-life,[8],2.6 h
same,bioavailability,[9],21%
same,AUC at 24 h,[10],0.751 µM·h
same,Activity,[11],Non-Toxic
same,Activity,[12],Non-Toxic
same,IC50,Cytochrome P450 2C8,> 25 µM
same,bioavailability,[13],51%
same,"Papp A→B at 2 h, 50 µM",[14],13 ×10⁻⁶ cm/s
same,Vd,[15],0.4 L/kg
same,AUC at 24 h,[16],5.65 µM·h
same,Cmax,[17],962 nM
same,Cmax,[18],757 nM
same,IC50,Cytochrome P450 2C19,> 25 µM
same,CLint scaled at 1 µM,[19],8.33 mL/min/kg
same,inhibition in vivo at 30 mg/kg,[20],~50%
same,fraction unbound at 2 h,[21],0.12
